From PMC9706574, “A Versatile and Sustainable Multicomponent Platform for the Synthesis of Protein Degraders: Proof-of-Concept Application to BRD4-Degrading PROTACs” (Journal of Medicinal Chemistry, 2022)
Converted amounts (≈) assume the structure as drawn. Marks after values point to notes of the source that are not given here.

Columns and labels:
BRD4 = molecular target: T1, BRD4 (Homo sapiens, UniProt O60885); assay: BRD4 degradation by Western blot analysis in MDA-MB-231 cells; format: cell-based; conditions: for dose-response of BRD4 degradation (in words): 100 nM to 10 μM; for effect of cotreatment with proteasome inhibitor bortezomib on BRD4 degradation: 1 μM compound + 5 nM bortezomib; for BRD4 degradation in time-course experiments (in words) / Densitometry (% of control), BRD4-immunoreactive band relative to DMSO vehicle: 1 μM; for BRD4 degradation in time-course experiments (in words): 4 up to 24 h
T1 construct: endogenous in cells; host or cells: MDA-MB-231
Experimental: In Vitro Biological Validation of PROTACs and Preliminary Assessment of Thermodynamic Aqueous Solubility and Metabolic Stability of Selected BRD4-Degrading PROTACs. With the aim of proving the utility of our platform and the compatibility of the substructures accessible by the MCR strategy with a proximity-based degradation, the ability of our PROTAC candidates to effectively act as BRD4 degraders was tested in the human breast cancer cell line MDA-MB-231, known to express detectable levels of this protein.
The human breast adenocarcinoma MDA-MB-231 cell line was cultured in DMEM (Sigma-Aldrich) supplemented with 10% fetal bovine serum (FBS), 1% glutamine, and 1% penicillin/streptomycin. For Western blot analysis, […] cells/well were plated into 12-well plates containing DMEM complete growth medium, to be treated with the synthesized compounds, at the indicated concentrations, for different time lengths. After treatments, cells were scraped and lysed to obtain protein extract using RIPA lysis buffer supplemented with protease (PIC, Merck-Millipore) and phosphatase inhibitors (NaF 1 M, Na3VO4 1 M, PMSF […], Sigma-Aldrich). Cells lysates were centrifuged at 13 000 rpm for 10 min at 4 °C to remove membranes and insoluble fractions. Protein quantification of the supernatant fraction was performed with Braford protein assay (Sigma-Aldrich). […] aliquots of protein extracts were used for 12% SDS-PAGE. After transfer into nitrocellulose membranes, BRD4 and tubulin protein levels were evaluated by immunoblotting using a rabbit polyclonal anti-BRD4 (Bethyl Laboratories) and a mouse monoclonal α-tubulin (Sigma-Aldrich) IgG as primary antibodies and an antirabbit or antimouse HRP-conjugated secondary antibody (Bio-Rad Laboratories). Protein levels were detected by chemiluminescent conversion of the HRP substrate LumiGLO (Thermo Fisher Scientific) using the ChemiDoc imaging system (Bio-Rad). Band densitometry was assessed, normalized to α-tubulin immunoreactive bands, and reported as percentage of the 0.3% DMSO control lane.

[1] = Thermodynamic aqueous solubility; format: physicochemical
Experimental: Saturated solutions were prepared by dissolving the tested compounds in 0.1 M phosphate-buffered saline (pH = 7.4) or 0.01 N HCl solutions and sonicated for 30 s. After equilibration on an orbital shaker at 25 °C for 2 h, the solutions were centrifuged at 13 000 rpm for 5 min and filtered through a 0.2 μm regenerated cellulose (RC) syringe filter. A 400 μL aliquot of each filtrate was diluted with 100 μL of acetonitrile and analyzed by LC-UV. When the measured peak area was out of the calibration range (5–100 μM), the sample was further diluted in water–acetonitrile 1:1 mixture.

[2] = Metabolic stability in mouse liver microsomes (MLM); format: in vitro ADME
Experimental: To this aim, we evaluated the metabolic stability of the five selected PROTACs in mouse liver microsomes (MLM).
Mouse liver microsomes (MLM) (pooled male mouse CD-1, protein concentration: 20 mg/mL) were purchased from Corning B.V. Life Sciences (Amsterdam, The Netherlands). The standard incubation mixture (250 μL final volume) was carried out in a 50 mM Tris (tris[hydroxymethyl]aminomethane) buffer (pH 7.4) containing 150 mM KCl, 1.5 mM, 3.3 mM MgCl2, 1.3 mM NADPNa2, 3.3 mM glucose 6-phosphate, 0.4 units/mL glucose 6-phosphate dehydrogenase, acetonitrile as cosolvent (1% of total volume), and the substrate (50 μM). After pre-equilibration of the mixture, an appropriate volume of MLM suspension was added to give a final protein concentration of 1.0 mg/mL. The mixture was shaken for 60 min at 37 °C. Control incubations were carried out without the presence of an NADPH-regenerating system or microsomes. Each incubation was stopped by the addition of 250 μL of ice-cold acetonitrile, vortexed, and centrifuged at 13 000 rpm for 5 min. The supernatants were analyzed by LC-UV.

[3] = set-up: method as in PMID 28378579; conditions: cited from earlier work
[4] = set-up: method as in PMID 33026811; conditions: physiological pH, in 3 h; cited from earlier work
[5] = 8 h treatment, MDA-MB-231 cells, from Western blot densitometry
[6] = 0.01 N HCl solution, HCl 0.01 N, pH 2.0, 25 °C
[7] = phosphate-buffered saline, PBS 0.1 M, pH 7.4, 25 °C

SMILES	dose-response of BRD4 degradation (in words) (BRD4; 8 h, MDA-MB-231 cells)	effect of cotreatment with proteasome inhibitor bortezomib on BRD4 degradation (BRD4; 8 h)	DC50 (BRD4; [5]) [nM]	melting point	solubility thermodynamic at 2 h [1, 6] [µM]	solubility thermodynamic at 2 h [1, 7] [µM]	BRD4 degradation in time-course experiments (in words) (BRD4; MDA-MB-231 cells)	further results
Cc1sc2c(c1C)C(c1ccc(Cl)cc1)=N[C@@H](CC(=O)NCC(=O)NCCCOc1cccc3c1C(=O)N(C1CCC(=O)NC1=O)C3=O)c1nnc(C)n1-2 (stereo partly drawn) [Compound 27, 2-((S)-4-(4-Chlorophenyl)-2,3,9-trimethyl-6H-thieno[3,2-f][1,2,4]triazolo[4,3-a][1,4]diazepin-6-yl)-N-(2-((3-((2-(2,6-dioxopiperidin-3-yl)-1,3-dioxoisoindolin-4-yl)oxy)propyl)amino)-2-oxoethyl)acetamide]	showed dose-dependency	abolish BRD4 degradation	97.1	221.3 to 223.6 °C (dec.)	145 (≈ 112 µg/mL)	48 (≈ 37 µg/mL)	decreased expression of BRD4 at all the time-points tested	Dmax (BRD4; 8 h treatment, MDA-MB-231 cells, from Western blot densitometry, read-out: Dmax (maximal % of reduction toward DMSO control lane)): 88%
Cc1sc2c(c1C)C(c1ccc(Cl)cc1)=N[C@@H](CC(=O)NCC(=O)NCCCCOc1cccc3c1C(=O)N(C1CCC(=O)NC1=O)C3=O)c1nnc(C)n1-2 (stereo partly drawn) [Compound 28, 2-((S)-4-(4-Chlorophenyl)-2,3,9-trimethyl-6H-thieno[3,2-f][1,2,4]triazolo[4,3-a][1,4]diazepin-6-yl)-N-(2-((4-((2-(2,6-dioxopiperidin-3-yl)-1,3-dioxoisoindolin-4-yl)oxy)butyl)amino)-2-oxoethyl)acetamide]				231.9 to 232.6 °C (dec.)	48 (≈ 37.7 µg/mL)	17 (≈ 13.3 µg/mL)		
Cc1sc2c(c1C)C(c1ccc(Cl)cc1)=N[C@@H](CC(=O)NCC(=O)NCCCCCOc1cccc3c1C(=O)N(C1CCC(=O)NC1=O)C3=O)c1nnc(C)n1-2 (stereo partly drawn) [Compound 29, 2-((S)-4-(4-Chlorophenyl)-2,3,9-trimethyl-6H-thieno[3,2-f][1,2,4]triazolo[4,3-a][1,4]diazepin-6-yl)-N-(2-((5-((2-(2,6-dioxopiperidin-3-yl)-1,3-dioxoisoindolin-4-yl)oxy)pentyl)amino)-2-oxoethyl)acetamide]	degradation was observed only at 1 and 3 μM concentrations	abolish BRD4 degradation	184	223.4 to 225.1 °C (dec.)	39 (≈ 31.2 µg/mL)	15 (≈ 12 µg/mL)	decreased expression of BRD4 at all the time-points tested	
Cc1sc2c(c1C)C(c1ccc(Cl)cc1)=N[C@@H](CC(=O)NCCCCNC(=O)COc1cccc3c1C(=O)N(C1CCC(=O)NC1=O)C3=O)c1nnc(C)n1-2 (stereo partly shown) [dBET1]								Thermodynamic aqueous solubility, HCl 0.01 N (pH = 2.0) ([3]; pH 2.0, literature data ref 58): 171 ^c μM; Thermodynamic aqueous solubility, PBS 0.1 M (pH = 7.4) ([3]; pH 7.4, literature data ref 58): 60 ^c μM
O=C1CCC(N2C(=O)c3ccccc3C2=O)C(=O)N1 (stereo not shown) [thalidomide]								hydrolytic degradation [4]: about 30%

Further lines, with some results ahead:

dose-response of BRD4 degradation (in words) (BRD4; 8 h, MDA-MB-231 cells)	effect of cotreatment with proteasome inhibitor bortezomib on BRD4 degradation (BRD4; 8 h)	DC50 (BRD4; [5]) [nM]	melting point	solubility thermodynamic at 2 h [1, 6] [µM]	solubility thermodynamic at 2 h [1, 7] [µM]	SMILES	BRD4 degradation in time-course experiments (in words) (BRD4; MDA-MB-231 cells)	further results
showed the well-known “hook effect”	abolish BRD4 degradation	60	194.8 to 196.8 °C (dec.)	5070 (≈ 4410 µg/mL)	11 (≈ 9.55 µg/mL)	Cc1sc2c(c1C)C(c1ccc(Cl)cc1)=N[C@@H](CC(=O)N1CCN(CC(=O)NCCCCCOc3cccc4c3C(=O)N(C3CCC(=O)NC3=O)C4=O)CC1)c1nnc(C)n1-2 (stereo partly drawn) [Compound 34, 2-(4-(2-((S)-4-(4-Chlorophenyl)-2,3,9-trimethyl-6H-thieno[3,2-f][1,2,4]triazolo[4,3-a][1,4]diazepin-6-yl)acetyl)piperazin-1-yl)-N-(5-((2-(2,6-dioxopiperidin-3-yl)-1,3-dioxoisoindolin-4-yl)oxy)pentyl)acetamide]	decreased expression of BRD4 at all the time-points tested	concentration of maximal BRD4 degradation (BRD4; dose-response 100 nM to 10 μM, 8 h, MDA-MB-231 cells): 300 nM
			105.2 to 107 °C (dec.)	18 (≈ 14.2 µg/mL)	8 (≈ 6.29 µg/mL)	Cc1sc2c(c1C)C(c1ccc(Cl)cc1)=N[C@@H](CC(=O)OCC(=O)NCCCCOc1cccc3c1C(=O)N(C1CCC(=O)NC1=O)C3=O)c1nnc(C)n1-2 (stereo partly drawn) [Compound 37, 2-((4-((2-(2,6-Dioxopiperidin-3-yl)-1,3-dioxoisoindolin-4-yl)oxy)butyl)amino)-2-oxoethyl2-((S)-4-(4-chlorophenyl)-2,3,9-trimethyl-6H-thieno[3,2-f][1,2,4]triazolo[4,3-a][1,4]diazepin-6-yl)acetate]		metabolic stability in MLM (in words) [2]: highly stable in MLM; solubility at physiological pH (in words) ([1]; pH 7.4): the least soluble
			164.3 to 165.5 °C			Cc1ncsc1-c1ccc(CNC(=O)[C@@H]2C[C@@H](O)CN2C(=O)[C@@H](NC(=O)CCCNC(=O)CN2CCN(C(=O)C[C@@H]3N=C(c4ccc(Cl)cc4)c4c(sc(C)c4C)-n4c(C)nnc43)CC2)C(C)(C)C)cc1 [Compound 47, (2S,4R)-1-((S)-2-(4-(2-(4-(2-((S)-4-(4-Chlorophenyl)-2,3,9-trimethyl-6H-thieno[3,2-f][1,2,4]triazolo[4,3-a][1,4]diazepin-6-yl)acetyl)piperazin-1-yl)acetamido)butanamido)-3,3-dimethylbutanoyl)-4-hydroxy-N-(4-(4-methylthiazol-5-yl)benzyl)pyrrolidine-2-carboxamide]		Densitometry (% of control), BRD4-immunoreactive band relative to DMSO vehicle (BRD4; 4 h, MDA-MB-231 cells): 50 % of control; Densitometry (% of control), BRD4-immunoreactive band relative to DMSO vehicle (BRD4; 8 h, MDA-MB-231 cells): 65,6 % of control
